{"source": "patent US11807644B2", "about": "(PMV Pharmaceuticals, Inc., priority 2020, dated 2023)"}
{"target": "T1, recombinant His-tag Y220C p53 DBD protein (Homo sapiens, UniProt P04637, Y220C)", "T1 construct": "recombinant His-tag Y220C p53 DBD protein (amino acids #˜94-312)", "test": "In vitro DNA binding activity assay (TR-FRET): binding of His-tag Y220C p53 DBD to biotin-labeled consensus DNA", "type": "biochemical", "details": "SC150 = concentration to increase DNA binding by […], His-tag Y220C p53 DBD, biotin-labeled consensus DNA"}
{"smiles": "CN1CC[C@@H](Nc2cccc3c2cc(-c2noc(CNC(=O)[C@H]4C[C@H](C)C4)n2)n3CC(F)(F)F)[C@@H](F)C1", "note": "[Compound 212B, (1s,3r)-N-{[3-(4-{[(3S,4R)-3-fluoro-1-methylpiperidin-4-yl]amino}-1-(2,2,2-trifluoroethyl)-1H-indol-2-yl)-1,2,4-oxadiazol-5-yl]methyl}-3-methylcyclobutane-1-carboxamide]", "Y220C SC150 (μM)": "* (* = 0 μM ≤ SC150 < 0.1 μM)"}
{"smiles": "CN1CC[C@@H](Nc2cccc3c2cc(-c2noc(CNC(=O)c4csc(Cl)c4)n2)n3CC(F)(F)F)[C@@H](F)C1", "note": "[Compound 213B, 5-chloro-N-{[3-(4-{[(3S,4R)-3-fluoro-1-methylpiperidin-4-yl]amino}-1-(2,2,2-trifluoroethyl)-1H-indol-2-yl)-1,2,4-oxadiazol-5-yl]methyl}thiophene-3-carboxamide]", "Y220C SC150 (μM)": "* (* = 0 μM ≤ SC150 < 0.1 μM)"}
{"smiles": "F[C@H]1CNCC[C@H]1Nc1cccc2c1cc(-c1noc(CNc3ccn[nH]3)n1)n2CC(F)(F)F", "note": "[Compound 214B, N-[(3S,4R)-3-fluoropiperidin-4-yl]-2-(5-{[(1H-pyrazol-5-yl)amino]methyl}-1,2,4-oxadiazol-3-yl)-1-(2,2,2-trifluoroethyl)-1H-indol-4-amine]", "Y220C SC150 (μM)": "* (* = 0 μM ≤ SC150 < 0.1 μM)"}
{"smiles": "CN1CC[C@@H](Nc2cccc3c2cc(-c2noc(CNC(=O)c4ccsc4Cl)n2)n3CC(F)(F)F)[C@@H](F)C1", "note": "[Compound 215B, 2-chloro-N-{[3-(4-{[(3S,4R)-3-fluoro-1-methylpiperidin-4-yl]amino}-1-(2,2,2-trifluoroethyl)-1H-indol-2-yl)-1,2,4-oxadiazol-5-yl]methyl}thiophene-3-carboxamide]", "Y220C SC150 (μM)": "* (* = 0 μM ≤ SC150 < 0.1 μM)"}
{"smiles": "CN1CC[C@@H](Nc2cccc3c2cc(-c2noc(CNC(=O)c4cc5ccccn5n4)n2)n3CC(F)(F)F)[C@@H](F)C1", "note": "[Compound 216B, N-{[3-(4-{[(3S,4R)-3-fluoro-1-methylpiperidin-4-yl]amino}-1-(2,2,2-trifluoroethyl)-1H-indol-2-yl)-1,2,4-oxadiazol-5-yl]methyl}pyrazolo[1,5-a]pyridine-2-carboxamide]", "Y220C SC150 (μM)": "* (* = 0 μM ≤ SC150 < 0.1 μM)"}
{"smiles": "CN1CC[C@@H](Nc2cccc3c2cc(-c2noc(CNC(=O)c4cn5ccccc5n4)n2)n3CC(F)(F)F)[C@@H](F)C1", "note": "[Compound 217B, N-{[3-(4-{[(3S,4R)-3-fluoro-1-methylpiperidin-4-yl]amino}-1-(2,2,2-trifluoroethyl)-1H-indol-2-yl)-1,2,4-oxadiazol-5-yl]methyl}imidazo[1,2-a]pyridine-2-carboxamide]", "Y220C SC150 (μM)": "* (* = 0 μM ≤ SC150 < 0.1 μM)"}
{"smiles": "CN1CC[C@@H](Nc2cccc3c2cc(-c2noc(CNC(=O)c4ccn(C5CC5)c4)n2)n3CC(F)(F)F)[C@@H](F)C1", "note": "[Compound 218B, 1-cyclopropyl-N-{[3-(4-{[(3S,4R)-3-fluoro-1-methylpiperidin-4-yl]amino}-1-(2,2,2-trifluoroethyl)-1H-indol-2-yl)-1,2,4-oxadiazol-5-yl]methyl}-1H-pyrrole-3-carboxamide]", "Y220C SC150 (μM)": "* (* = 0 μM ≤ SC150 < 0.1 μM)"}
{"smiles": "Cc1cc(C(=O)NCc2nc(-c3cc4c(N[C@@H]5CCN(C)C[C@@H]5F)cccc4n3CC(F)(F)F)no2)cn1C", "note": "[Compound 219B, N-{[3-(4-{[(3S,4R)-3-fluoro-1-methylpiperidin-4-yl]amino}-1-(2,2,2-trifluoroethyl)-1H-indol-2-yl)-1,2,4-oxadiazol-5-yl]methyl}-1,5-dimethyl-1H-pyrrole-3-carboxamide]", "Y220C SC150 (μM)": "* (* = 0 μM ≤ SC150 < 0.1 μM)"}
{"smiles": "CN1CC[C@@H](Nc2cccc3c2cc(-c2noc(CNC(=O)c4ccc(N(C)C)cc4)n2)n3CC(F)(F)F)[C@@H](F)C1", "note": "[Compound 220B, 4-(dimethylamino)-N-{[3-(4-{[(3S,4R)-3-fluoro-1-methylpiperidin-4-yl]amino}-1-(2,2,2-trifluoroethyl)-1H-indol-2-yl)-1,2,4-oxadiazol-5-yl]methyl}benzamide]", "Y220C SC150 (μM)": "* (* = 0 μM ≤ SC150 < 0.1 μM)"}
{"smiles": "CN1CC[C@@H](Nc2cccc3c2cc(-c2noc(CNS(=O)(=O)c4ccccc4)n2)n3CC(F)(F)F)[C@@H](F)C1", "note": "[Compound 221B, N-{[3-(4-{[(3S,4R)-3-fluoro-1-methylpiperidin-4-yl]amino}-1-(2,2,2-trifluoroethyl)-1H-indol-2-yl)-1,2,4-oxadiazol-5-yl]methyl}benzenesulfonamide]", "Y220C SC150 (μM)": "** (** = 0.1 μM ≤ SC150 < 0.5 μM)"}
{"smiles": "CN1CC[C@@H](Nc2cccc3c2cc(-c2noc(CNC(=O)C4CCC4)n2)n3CC(F)(F)F)[C@@H](F)C1", "note": "[Compound 222B, N-{[3-(4-{[(3S,4R)-3-fluoro-1-methylpiperidin-4-yl]amino}-1-(2,2,2-trifluoroethyl)-1H-indol-2-yl)-1,2,4-oxadiazol-5-yl]methyl}cyclobutanecarboxamide]", "Y220C SC150 (μM)": "* (* = 0 μM ≤ SC150 < 0.1 μM)"}
{"smiles": "CN1CC[C@@H](Nc2cccc3c2cc(-c2noc(CNC(=O)[C@H]4C[C@@H](C)C4)n2)n3CC(F)(F)F)[C@@H](F)C1", "note": "[Compound 223B, (1r,3s)-N-{[3-(4-{[(3S,4R)-3-fluoro-1-methylpiperidin-4-yl]amino}-1-(2,2,2-trifluoroethyl)-1H-indol-2-yl)-1,2,4-oxadiazol-5-yl]methyl}-3-methylcyclobutane-1-carboxamide]", "Y220C SC150 (μM)": "* (* = 0 μM ≤ SC150 < 0.1 μM)"}
{"smiles": "CN1CC[C@@H](Nc2cccc3c2cc(-c2noc(CNC(=O)[C@@H]4C[C@H]4c4ccccc4F)n2)n3CC(F)(F)F)[C@@H](F)C1", "note": "[Compound 224B, (1R,2R)-N-{[3-(4-{[(3S,4R)-3-fluoro-1-methylpiperidin-4-yl]amino}-1-(2,2,2-trifluoroethyl)-1H-indol-2-yl)-1,2,4-oxadiazol-5-yl]methyl}-2-(2-fluorophenyl)cyclopropane-1-carboxamide]", "Y220C SC150 (μM)": "* (* = 0 μM ≤ SC150 < 0.1 μM)"}
{"smiles": "CN1CC[C@@H](Nc2cccc3c2cc(-c2noc(CNC(=O)[C@@H]4C[C@H]4c4cnn(C)c4)n2)n3CC(F)(F)F)[C@@H](F)C1", "note": "[Compound 225B, (1R,2R)-N-{[3-(4-{[(3S,4R)-3-fluoro-1-methylpiperidin-4-yl]amino}-1-(2,2,2-trifluoroethyl)-1H-indol-2-yl)-1,2,4-oxadiazol-5-yl]methyl}-2-(1-methyl-1H-pyrazol-4-yl)cyclopropane-1-carboxamide]", "Y220C SC150 (μM)": "* (* = 0 μM ≤ SC150 < 0.1 μM)"}
{"smiles": "CN1CC[C@@H](Nc2cccc3c2cc(-c2noc(CNC(=O)[C@@H]4C[C@H]4c4ccccn4)n2)n3CC(F)(F)F)[C@@H](F)C1", "note": "[Compound 226B, (1R,2R)-N-{[3-(4-{[(3S,4R)-3-fluoro-1-methylpiperidin-4-yl]amino}-1-(2,2,2-trifluoroethyl)-1H-indol-2-yl)-1,2,4-oxadiazol-5-yl]methyl}-2-(pyridin-2-yl)cyclopropane-1-carboxamide]", "Y220C SC150 (μM)": "* (* = 0 μM ≤ SC150 < 0.1 μM)"}
{"smiles": "CN1CC[C@@H](Nc2cccc3c2cc(-c2noc(CNc4cn[nH]c4)n2)n3CC(F)(F)F)[C@@H](F)C1", "note": "[Compound 227B, N-[(3S,4R)-3-fluoro-1-methylpiperidin-4-yl]-2-(5-{[(1H-pyrazol-4-yl)amino]methyl}-1,2,4-oxadiazol-3-yl)-1-(2,2,2-trifluoroethyl)-1H-indol-4-amine]", "Y220C SC150 (μM)": "* (* = 0 μM ≤ SC150 < 0.1 μM)"}
{"smiles": "CC(=O)NCc1nc(-c2cc3c(N[C@@H]4CCN(C)C[C@@H]4F)cccc3n2CC(F)(F)F)no1", "note": "[Compound 228B, N-{[3-(4-{[(3S,4R)-3-fluoro-1-methylpiperidin-4-yl]amino}-1-(2,2,2-trifluoroethyl)-1H-indol-2-yl)-1,2,4-oxadiazol-5-yl]methyl}acetamide]", "Y220C SC150 (μM)": "* (* = 0 μM ≤ SC150 < 0.1 μM)"}
{"smiles": "CN(C)CCn1ccc(C(=O)NCc2nc(-c3cc4c(N[C@@H]5CCN(C)C[C@@H]5F)cccc4n3CC(F)(F)F)no2)c1", "note": "[Compound 229B, 1-[2-(dimethylamino)ethyl]-N-{[3-(4-{[(3S,4R)-3-fluoro-1-methylpiperidin-4-yl]amino}-1-(2,2,2-trifluoroethyl)-1H-indol-2-yl)-1,2,4-oxadiazol-5-yl]methyl}-1H-pyrrole-3-carboxamide]", "Y220C SC150 (μM)": "* (* = 0 μM ≤ SC150 < 0.1 μM)"}
{"smiles": "CN1CC[C@@H](Nc2cccc3c2cc(-c2noc(CNc4ccn[nH]4)n2)n3CC(F)(F)F)[C@@H](F)C1", "note": "[Compound 230B, N-[(3S,4R)-3-fluoro-1-methylpiperidin-4-yl]-2-(5-{[(1H-pyrazol-5-yl)amino]methyl}-1,2,4-oxadiazol-3-yl)-1-(2,2,2-trifluoroethyl)-1H-indol-4-amine]", "Y220C SC150 (μM)": "* (* = 0 μM ≤ SC150 < 0.1 μM)"}
{"smiles": "CC(C)n1cnc(C(=O)NCc2nc(-c3cc4c(N[C@@H]5CCN(C)C[C@@H]5F)cccc4n3CC(F)(F)F)no2)c1", "note": "[Compound 232B, N-{[3-(4-{[(3S,4R)-3-fluoro-1-methylpiperidin-4-yl]amino}-1-(2,2,2-trifluoroethyl)-1H-indol-2-yl)-1,2,4-oxadiazol-5-yl]methyl}-1-(propan-2-yl)-1H-imidazole-4-carboxamide]", "Y220C SC150 (μM)": "* (* = 0 μM ≤ SC150 < 0.1 μM)"}
{"smiles": "CN1CC[C@@H](Nc2cccc3c2cc(-c2noc(CNC(=O)[C@H]4CC4(C)C)n2)n3CC(F)(F)F)[C@@H](F)C1", "note": "[Compound 233B, (1S)-N-{[3-(4-{[(3S,4R)-3-fluoro-1-methylpiperidin-4-yl]amino}-1-(2,2,2-trifluoroethyl)-1H-indol-2-yl)-1,2,4-oxadiazol-5-yl]methyl}-2,2-dimethylcyclopropane-1-carboxamide]", "Y220C SC150 (μM)": "* (* = 0 μM ≤ SC150 < 0.1 μM)"}
{"smiles": "CN1CCN(C[C@@H]2C[C@H]2C(=O)NCc2nc(-c3cc4c(N[C@@H]5CCN(C)C[C@@H]5F)cccc4n3CC(F)(F)F)no2)CC1", "note": "[Compound 234B, (1R,2R)-N-{[3-(4-{[(3S,4R)-3-fluoro-1-methylpiperidin-4-yl]amino}-1-(2,2,2-trifluoroethyl)-1H-indol-2-yl)-1,2,4-oxadiazol-5-yl]methyl}-2-[(4-methylpiperazin-1-yl)methyl]cyclopropane-1-carboxamide]", "Y220C SC150 (μM)": "* (* = 0 μM ≤ SC150 < 0.1 μM)"}
